The source of these data is patent US20140378380A1, “USE OF UNACYLATED GHRELIN, FRAGMENTS AND ANALOGS THEREOF AS ANTIOXIDANT” (Alizé Pharma SAS, priority 2013, published 2014).

Ends that are not written are not given here. * marks the point of attachment. Octanoyl = CCCCCCCC(=O)*

Assay [1] concerns primary SCs. Put plainly: Primary SCs from normo-perfused muscles subjected to in vitro ischemia. The class given is cell-based, mice. Particulars: SB202190 1 μmol/L added; in vitro ischemia. The method, then:
(§1) SCs were isolated from gastrocnemius muscles of C57BL/6J wild type mice subjected to ischemia or C57BL/6J mice lacking the GHSR1a and ghrelin genes (10 mice, kind gift of Professor M. Tschöp)^39. To obtain SCs, muscle samples were subjected to enzymatic digestion as described^45. In selected experiments, SCs were recovered from normo-perfused muscles and subjected to in-vitro ischemia in presence of saline, AG (1 μmol/L) or UAG (1 μmol/L). In-vitro ischemia was induced by incubating cells in DMEM+2% FCS at 5% CO2/95% N2 humidified atmosphere, yielding 1% O2 concentrations for 24 h^18. The in-vitro ischemia was also performed in the presence of SB202190 (1 μmol/L).
(§2) SC cell-cycle progression was evaluated by evaluating the percentage of PCNA-positive cells or by FACS analysis as previously described^46. The percentage of cells in each cell cycle phase was determined by ModFit LT software (Verity Software House. Inc, topsham, ME, USA). Celss proliferation was also assayed by evaluating the percentage of PCNA-positive cells by FACS analysis.
(§3) Cells were lysed and protein detection was obtained as previously described^47. Cells were lysed (50 mmol/L Tris HCl [pH 8.3], 1% Triton X-100, 10 mmol/L PMSF, 100 U/ml aprotinin, 10 μmol/L leupeptin) and protein concentrations were obtained as previously described^47. […] Densitometric analysis was used to calculate the differences in the fold induction of protein levels and normalized to tubulin, a actin or p38MAPK content. Values are reported as relative amount
(§4) Intracellular ROS production was evaluated using DCF-DA (5-(and-6)-carboxy-2′,7′-dichlorofluorescein diacetate, […] final concentration) (Molecular Probe, Invitrogen) assay as previously described^23. The formation of TBARS was determined in muscles using the OXI-TEK kit (ZeptoMetrix Corp.) and a luminescence spectrometer (Bio-Rad Laboratories, Hercules, Calif.) with excitation set at 530 nm, emission at 550 nm to measure in-vivo oxidative stress levels^33.
Total RNA was isolated using TRIzol reagent (Invitrogen) from SCs recovered from muscles of treated animals or from SCs subjected to in-vitro ischemia. miR-221/222 expression was evaluated by qRT-PCR as previously described^48. Loss-of-function experiments were performed in SCs transfected for 48 h with anti-miRNA negative control, anti-miR-221/222 antagonists (Applied Biosystem, Foxter Cyto CA, USA), according to the manufacturer's instructions^48.
To obtain SOD-2 inactivation, SCs were transiently transfected with siRNA for SOD-2 or with duplex siRNAs (Qiagen, Valencia, Calif., USA) as previously described^44. Transfection was performed according to the manufacturer's instructions. Whole cell extracts were processed 48 h after transfection. Cell viability was evaluated at the end of each experiment. […]

For assay [2] the following is noted: U.S. Pat. Nos. 8,222,217 and 8,318,664; cited from earlier work.
Assay [3] has as its system C2C12 mouse muscular cell line. Put plainly: ROS production (DCF-DA) in C2C12 cells subjected to oxidative stress. Type of assay: cell-based. Particulars: for protective effect on C2C12 cells against oxidative stress: oxidative stress by hypoxia, AGEs, hyperglycemia or H2O2, 1 μmol/L; for retention of the functions of UAG: results provided herein. The method, then: Kinetic analysis of ROS production was evaluated by using DCF-DA (5-(and-6)-carboxy-2′,7′-dichlorofluorescein diacetate, 0.5 μmol/L final concentration) (Molecular Probe, Invitrogen) assay. C2C12 cells were cultured with 400 μg/ml Advanced Glycated End-product (AGE) or 25 mM glucose (high glucose HG) for 48 h, H2O2 (100 μM) for 2 h. In parallel experiments C2C12 cells were subjected to hypoxia (DMEM+2% FCS in a 5% CO2-95% N2 humidified atmosphere, yielding to 1% O2 concentrations for 24 h). UAG (1 μmol/L) AZP 531 (1 μmol/L) or AZP-502 (1 μmol/L) was added where indicated.

For assay [4], the system named is SCs from double KO mice. As to the kind of experiment: SCs from double KO mice (lacking GHSR1a and ghrelin genes) subjected to in vitro ischemia. The class given is cell-based. Particulars: DCF-DA. How it is done:
as §1, §2, §3, §4

Assay [5] has as its system C57BL/6J mice. As to the kind of experiment: Murine hind-limb ischemia model (foot damage score, histology, IF, TBARS). The class given is in vivo. The method, then: Male C57BL/6J mice (Charles River Lab., Wilmington, Mass., USA) were anesthetized and unilateral hind limb ischemia was induced as described^42. The normo-perfused contralateral limb of each mouse was used as an internal control. After hind-limb ischemia, animals (18 mice per group) were treated by intra-peritoneal injection daily from 0 to day 21 with either saline, AG ([…]) or UAG ([…]). In selected experiments, mice received intramuscular injections of pre-miR oligonucleotides (5 mice/group). To induce toxic damage, 100 μl of 1% barium chloride (BaCl2, Sigma Aldrich) was injected unilaterally into the hind limb (9 mice). Mice were treated according to European Guidelines and policies as approved by the University of Turin Ethical Committee.
Semiquantitative estimation (by repeated measures analyzed with ANOVA and Newman-Keuls Multiple Comparison test) of foot damage was performed serially using the following classification: 3=dragging of foot (foot necrosis), 2=no dragging but no plantar flexion (foot damage), 1=plantar flexion but no toe flexion (toe damage), and 0=flexing the toes to resist gentle traction on the tail (no damage)^43.
Gastrocnemius muscle sections from ischemic or normo-perfused limbs were stained with hematoxylin and eosin for histological analysis. The proportion of fibers with central nuclei (regenerating fibers) was measured by MetaMorph software (Life Sciences Research Imaging Systems) in the injured area and the cross-sectional areas of the fibers in the injured and non-injured areas. For IF analysis, muscle sections were processed as described previously^44. The number of cells expressing the indicated markers or CD31 positive vessels was evaluated as previously described^34.
as §4

As for `Oc1ccc(-c2nc(-c3ccncc3)c(-c3ccc(F)cc3)[nH]2)cc1` [SB202190, reference compound], in assay [1], the “MyoD and myogenin expression in SCs exposed to UAG” value is “prevented MyoD and myogenin expression”; the “cell-cycle entry of SCs exposed to UAG” value is “blocked cell-cycle entry”.

Regarding “Glu-His-Gln-Arg (EHQR; listed as Homo sapiens) [UAG (8-11)]”, the “activity on glucose, insulin and lipid metabolisms relative to UAG full length” value in assay [2] is “retain the activity of UAG full length”. EHQRVQ [UAG (8-13)]: in assay [2], the “activity on glucose, insulin and lipid metabolisms relative to UAG full length” value was “retain the activity of UAG full length”.

With “Glu-His-Gln-Arg-Val (EHQRV; listed as Homo sapiens) [UAG (8-12)]”, the “activity on glucose, insulin and lipid metabolisms relative to UAG full length” value in assay [2] is “retain the activity of UAG full length”. In the case of “Ser-Pro-Glu-His-Gln-Arg-Val-Gln (cycl) (SPEHQRVQ; cyclic; (1)..(8) Cyclic; listed as Homo sapiens) [UAG(6-13)cyclic]”, in assay [3], the “protective effect on C2C12 cells against oxidative stress” value is recorded as “have a protective effect” and the “retention of the functions of UAG” value is “retain the functions of UAG”. Consider “His-Gln-Arg-Val (HQRV; listed as Homo sapiens) [UAG (9-12)]”, for which, in assay [2], the “activity on glucose, insulin and lipid metabolisms relative to UAG full length” value is on record as “retain the activity of UAG full length”. Turning to SPEHQRVQ [UAG (6-13)], the “activity on glucose, insulin and lipid metabolisms relative to UAG full length” value in assay [2] is “retain the activity of UAG full length”. Further, in assay [3], the “protective effect on C2C12 cells against oxidative stress” value is given as “have a protective effect” and the “retention of the functions of UAG” value is “retain the functions of UAG”. “AG: 28 amino acid peptide characterized by the presence of an n-octanoyl modification on the Ser3 residue (GSS(Octanoyl)FLSPEHQRVQQRKESKKPPAKLQPR; UniProt Q9UBU3 24-51, looked up) [reference compound]”: the “protection of SCs from ROS generation” value in assay [4] is reported as “unlike AG”. Moreover, the “concentration of TBARS in ischemic muscles” value in assay [5] (gastrocnemius muscle) is listed as “Significant increases”. Besides, the “capillary density, ischemic vs contralateral control muscle of the same animals” value in assay [5] (ischemic vs normo-perfused muscle) was “significantly lower capillary density”. Also, in assay [5] (overall conclusion), the “protection against ischemia-induced damage (in vivo effects)” value is listed as “failure to detect in vivo effects”. Moreover, the “foot damage (functional score)” value in assay [5] (unilateral hind-limb ischemia, i.p. daily from day 0 to day 21, vs saline) is listed as “significantly higher”. “His-Gln-Arg (HQR; listed as Homo sapiens) [UAG (9-11)]”: the “activity on glucose, insulin and lipid metabolisms relative to UAG full length” value in assay [2] is “retain the activity of UAG full length”.
